Data from ChEMBL document CHEMBL4613212, “Insights of synthetic analogues of anti-leprosy agents” (Bioorg Med Chem, 2019).
≈ marks a conversion by molar mass, not a printed value.

Test system: Mycobacterium tuberculosis
Assay: Antimycobacterial activity against Mycobacterium bovis BCG Pasteur incubated for 10 days by spectrophotometric based assay
Type: functional
Details: variant bovis BCG, 240 h

Row | SMILES | MIC99
1 | CCCCCCCCC(CCC1CCCC1)C(N)=O (stereo not given) | 5400 µM (≈ 1440 µg/mL)
2 | O=C(O)C(CCCCCCCF)CCC1CCCC1 (stereo not given) | 1600 µM (≈ 436 µg/mL)
3 | CCCCCCCCC(CCC1CCCC1)C(=O)NCC (stereo not given) | 4400 µM (≈ 1300 µg/mL)
4 | CCCCCCCCC(COC1CCCC1)C(=O)O (stereo not given) | 2200 µM (≈ 595 µg/mL)
5 | CCCCCCOCC(CCC1CCCC1)C(=O)O (stereo not given) | 1100 µM (≈ 297 µg/mL)
6 | O=C1c2ccccc2C(=O)N1c1ccc(S(=O)(=O)Nc2ccncn2)cc1 | 1900 µM (≈ 723 µg/mL)
7 | CCCCCCCCC(CCC1CCCN1)C(=O)O (stereo not given) | 5100 µM (≈ 1370 µg/mL)
8 | CCCCCCCCC(CCC1CCCO1)C(=O)O (stereo not given) | 2500 µM (≈ 676 µg/mL)
9 | O=C1c2ccccc2C(=O)N1c1ccc(S(=O)(=O)Nc2ccccn2)cn1 | 1900 µM (≈ 723 µg/mL)
10 | CCCCCCCCC(CCC1CCCC1)C(=O)OC (stereo not given) | 1500 µM (≈ 424 µg/mL)
11 | O=C1c2ccccc2C(=O)N1c1cnc(S(=O)(=O)Nc2ccccn2)cn1 | 900 µM (≈ 343 µg/mL)
12 | O=C1c2ccccc2C(=O)N1c1ccc(S(=O)(=O)Nc2cnccn2)cc1 | 1000 µM (≈ 380 µg/mL)
13 | CCCCCCCCC(CCC1=CCC=C1)C(=O)O (stereo not given) | 6000 µM (≈ 1590 µg/mL)
14 | CCCOCOCCC(CCC1CCCC1)C(=O)O (stereo not given) | 500 µM (≈ 136 µg/mL)
15 | CCCCCCCCC(CCC1CCCS1)C(=O)O (stereo not given) | 5400 µM (≈ 1550 µg/mL)
